Assays:
Assay type in all cases: biochemical
Settings in all cases: tested at 10 uM, read-out: percent inhibition of the kinase activity
ROCK2 = biological target: T1, ROCK2 (Homo sapiens, UniProt O75116); experiment: ProfilerPro Kinase Selectivity, ROCK2
T1 construct: purchased Caliper LifeSciences
Experimental: (§1) Kinome selectivity profiling was performed using two example compounds according to the manufacturer's instructions using Caliper LifeSciences' ProfilerPro Kinase Selectivity Assay Kits. Compounds prepared in Examples 1 and 7 were tested at 10 uM and data were recorded using the Caliper LabChip® EZ Reader™. Each compounds' percent inhibition of the kinase activity measured in this manner is reported in the following lists.

PRKX = biological target: T2, PRKX (Homo sapiens, UniProt P51817); experiment: ProfilerPro Kinase Selectivity, PRKX
T2 construct: purchased Caliper LifeSciences
Experimental: as §1

SRM = biological target: T3, SRM (Homo sapiens, UniProt Q9H3Y6); experiment: ProfilerPro Kinase Selectivity, SRM
T3 construct: purchased Caliper LifeSciences
Experimental: as §1

TSSK2 = biological target: T4, TSSK2 (Homo sapiens, UniProt Q96PF2); experiment: ProfilerPro Kinase Selectivity, TSSK2
T4 construct: purchased Caliper LifeSciences
Experimental: as §1

MARK1 = biological target: T5, MARK1 (Homo sapiens, UniProt Q9P0L2); experiment: ProfilerPro Kinase Selectivity, MARK1
T5 construct: purchased Caliper LifeSciences
Experimental: as §1

EGFR T790M = biological target: T6, EGFR T790M (Homo sapiens, UniProt P00533, T790M); experiment: ProfilerPro Kinase Selectivity, EGFR T790M
T6 construct: purchased Caliper LifeSciences
T6 sequence (P00533 25-1210 T790M): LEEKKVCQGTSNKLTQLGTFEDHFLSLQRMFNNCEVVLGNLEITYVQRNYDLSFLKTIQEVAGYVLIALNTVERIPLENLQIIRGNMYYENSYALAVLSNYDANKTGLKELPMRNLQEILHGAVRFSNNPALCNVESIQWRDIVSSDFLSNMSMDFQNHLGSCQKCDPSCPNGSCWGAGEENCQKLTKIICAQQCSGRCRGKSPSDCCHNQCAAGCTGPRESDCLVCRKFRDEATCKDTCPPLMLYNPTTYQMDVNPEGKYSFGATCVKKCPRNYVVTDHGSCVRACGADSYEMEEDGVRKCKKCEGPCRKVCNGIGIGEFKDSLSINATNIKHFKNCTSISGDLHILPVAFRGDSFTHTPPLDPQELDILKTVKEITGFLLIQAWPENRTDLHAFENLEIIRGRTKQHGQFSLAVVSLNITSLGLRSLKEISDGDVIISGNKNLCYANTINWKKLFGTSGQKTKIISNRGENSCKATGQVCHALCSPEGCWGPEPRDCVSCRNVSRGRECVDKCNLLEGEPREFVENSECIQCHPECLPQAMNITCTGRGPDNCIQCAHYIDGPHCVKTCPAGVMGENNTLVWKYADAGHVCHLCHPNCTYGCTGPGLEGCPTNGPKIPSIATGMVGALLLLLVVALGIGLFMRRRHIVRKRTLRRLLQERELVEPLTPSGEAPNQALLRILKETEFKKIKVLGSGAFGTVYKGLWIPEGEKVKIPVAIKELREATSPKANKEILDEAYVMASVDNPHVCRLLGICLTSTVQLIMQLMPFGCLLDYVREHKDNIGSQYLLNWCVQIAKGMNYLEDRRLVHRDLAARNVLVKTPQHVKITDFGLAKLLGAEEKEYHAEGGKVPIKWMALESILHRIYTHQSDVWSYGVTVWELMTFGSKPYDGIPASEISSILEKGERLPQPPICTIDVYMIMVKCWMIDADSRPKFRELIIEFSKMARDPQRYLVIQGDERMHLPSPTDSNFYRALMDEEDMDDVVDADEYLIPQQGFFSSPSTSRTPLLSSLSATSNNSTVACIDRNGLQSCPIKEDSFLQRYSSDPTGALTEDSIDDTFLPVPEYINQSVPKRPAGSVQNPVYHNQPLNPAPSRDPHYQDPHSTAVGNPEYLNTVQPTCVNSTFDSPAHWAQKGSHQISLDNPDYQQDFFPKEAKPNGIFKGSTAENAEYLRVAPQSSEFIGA
Experimental: as §1

CAMK2G = biological target: T7, CAMK2G (Homo sapiens, UniProt Q13555); experiment: ProfilerPro Kinase Selectivity, CAMK2G
T7 construct: purchased Caliper LifeSciences
Experimental: as §1

FES = biological target: T8, FES (Homo sapiens, UniProt P07332); experiment: ProfilerPro Kinase Selectivity, FES
T8 construct: purchased Caliper LifeSciences
Experimental: as §1

TXK = biological target: T9, TXK (Homo sapiens, UniProt P42681); experiment: ProfilerPro Kinase Selectivity, TXK
T9 construct: purchased Caliper LifeSciences
Experimental: as §1

CDK5/P25 = biological target: T10, CDK5/P25 (Homo sapiens, UniProt Q00535); experiment: ProfilerPro Kinase Selectivity, CDK5/P25
T10 construct: purchased Caliper LifeSciences
Experimental: as §1

ABL T315I = biological target: T11, ABL T315I (Homo sapiens, UniProt P00519, T315I); experiment: ProfilerPro Kinase Selectivity, ABL T315I
T11 construct: purchased Caliper LifeSciences
Experimental: as §1

ZIPK = biological target: T12, ZIPK (Homo sapiens, UniProt O43293); experiment: ProfilerPro Kinase Selectivity, ZIPK
T12 construct: purchased Caliper LifeSciences
T12 sequence (O43293 whole entry, species assumed): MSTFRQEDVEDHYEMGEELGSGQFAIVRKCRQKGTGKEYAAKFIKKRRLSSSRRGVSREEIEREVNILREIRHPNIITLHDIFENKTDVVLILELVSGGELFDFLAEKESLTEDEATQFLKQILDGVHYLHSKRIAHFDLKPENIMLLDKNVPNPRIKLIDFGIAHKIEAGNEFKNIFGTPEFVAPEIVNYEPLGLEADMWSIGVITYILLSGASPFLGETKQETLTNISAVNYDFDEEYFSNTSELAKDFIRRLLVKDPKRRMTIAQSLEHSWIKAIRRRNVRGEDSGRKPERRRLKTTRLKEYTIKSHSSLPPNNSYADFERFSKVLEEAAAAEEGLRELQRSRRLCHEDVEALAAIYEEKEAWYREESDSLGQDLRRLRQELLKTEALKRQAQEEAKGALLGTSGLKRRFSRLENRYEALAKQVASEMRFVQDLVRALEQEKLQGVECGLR
Experimental: as §1

TEC = biological target: T13, TEC (Homo sapiens, UniProt P42680); experiment: ProfilerPro Kinase Selectivity, TEC
T13 construct: purchased Caliper LifeSciences
Experimental: as §1

PRKCB2 = biological target: T14, PRKCB2 (Homo sapiens, UniProt P05771); experiment: ProfilerPro Kinase Selectivity, PRKCB2
T14 construct: purchased Caliper LifeSciences
Experimental: as §1

FGFR3 = biological target: T15, FGFR3 (Homo sapiens, UniProt P22607); experiment: ProfilerPro Kinase Selectivity, FGFR3
T15 construct: purchased Caliper LifeSciences
Experimental: as §1

ARG = biological target: T16, ARG (Homo sapiens, UniProt P42684); experiment: ProfilerPro Kinase Selectivity, ARG
T16 construct: purchased Caliper LifeSciences
Experimental: as §1

CAMK4 = biological target: T17, CAMK4 (Homo sapiens, UniProt Q16566); experiment: ProfilerPro Kinase Selectivity, CAMK4
T17 construct: purchased Caliper LifeSciences
T17 sequence (Q16566 whole entry, species assumed): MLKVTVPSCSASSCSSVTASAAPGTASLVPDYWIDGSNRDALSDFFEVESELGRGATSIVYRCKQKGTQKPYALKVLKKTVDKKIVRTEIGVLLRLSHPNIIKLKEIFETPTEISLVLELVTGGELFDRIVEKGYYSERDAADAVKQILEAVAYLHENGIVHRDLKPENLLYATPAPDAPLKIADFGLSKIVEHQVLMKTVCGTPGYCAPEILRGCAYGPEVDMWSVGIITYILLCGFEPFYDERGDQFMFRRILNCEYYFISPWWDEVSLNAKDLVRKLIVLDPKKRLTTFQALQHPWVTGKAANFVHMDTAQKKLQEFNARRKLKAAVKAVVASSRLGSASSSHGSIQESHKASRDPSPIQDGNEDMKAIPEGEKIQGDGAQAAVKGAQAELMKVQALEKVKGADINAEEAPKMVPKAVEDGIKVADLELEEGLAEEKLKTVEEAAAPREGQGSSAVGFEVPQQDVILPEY
Experimental: as §1

MNK1 = biological target: T18, MNK1 (Homo sapiens, UniProt Q9BUB5); experiment: ProfilerPro Kinase Selectivity, MNK1
T18 construct: purchased Caliper LifeSciences
T18 sequence (Q9BUB5 whole entry, species assumed): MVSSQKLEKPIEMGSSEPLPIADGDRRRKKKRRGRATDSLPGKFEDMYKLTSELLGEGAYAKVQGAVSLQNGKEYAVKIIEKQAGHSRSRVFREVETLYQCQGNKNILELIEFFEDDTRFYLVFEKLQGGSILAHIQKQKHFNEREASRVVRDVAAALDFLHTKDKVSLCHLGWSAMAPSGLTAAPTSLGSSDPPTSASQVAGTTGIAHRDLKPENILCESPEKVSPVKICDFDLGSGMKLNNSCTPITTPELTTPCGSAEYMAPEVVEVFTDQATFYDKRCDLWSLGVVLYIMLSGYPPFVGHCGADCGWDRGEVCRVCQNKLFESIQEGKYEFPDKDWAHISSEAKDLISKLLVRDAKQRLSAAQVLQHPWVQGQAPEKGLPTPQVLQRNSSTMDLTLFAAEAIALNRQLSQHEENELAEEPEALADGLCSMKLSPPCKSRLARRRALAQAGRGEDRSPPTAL
Experimental: as §1

PDGFRA = biological target: T19, PDGFRA (Homo sapiens, UniProt P16234); experiment: ProfilerPro Kinase Selectivity, PDGFRA
T19 construct: purchased Caliper LifeSciences
Experimental: as §1

MARK4 = biological target: T20, MARK4 (Homo sapiens, UniProt Q96L34); experiment: ProfilerPro Kinase Selectivity, MARK4
T20 construct: purchased Caliper LifeSciences
T20 sequence (Q96L34 whole entry, species assumed): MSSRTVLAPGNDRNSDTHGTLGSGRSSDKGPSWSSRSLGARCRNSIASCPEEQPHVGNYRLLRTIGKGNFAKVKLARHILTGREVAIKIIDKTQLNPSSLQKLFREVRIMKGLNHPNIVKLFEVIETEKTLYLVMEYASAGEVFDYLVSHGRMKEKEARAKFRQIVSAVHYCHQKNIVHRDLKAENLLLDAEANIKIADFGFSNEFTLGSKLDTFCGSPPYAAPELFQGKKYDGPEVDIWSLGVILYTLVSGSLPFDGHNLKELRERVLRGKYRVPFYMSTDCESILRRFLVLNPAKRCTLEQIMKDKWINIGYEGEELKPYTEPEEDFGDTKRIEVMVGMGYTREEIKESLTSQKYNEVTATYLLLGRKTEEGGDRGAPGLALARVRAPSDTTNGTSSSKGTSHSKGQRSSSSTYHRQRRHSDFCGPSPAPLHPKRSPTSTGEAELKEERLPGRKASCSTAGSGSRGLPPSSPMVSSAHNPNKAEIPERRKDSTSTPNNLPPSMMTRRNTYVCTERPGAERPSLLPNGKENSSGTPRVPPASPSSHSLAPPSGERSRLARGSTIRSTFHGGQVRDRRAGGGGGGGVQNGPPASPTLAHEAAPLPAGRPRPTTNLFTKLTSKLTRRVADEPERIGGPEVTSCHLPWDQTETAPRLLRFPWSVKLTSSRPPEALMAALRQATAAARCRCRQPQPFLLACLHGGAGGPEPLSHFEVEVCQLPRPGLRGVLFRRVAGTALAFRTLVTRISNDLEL
Experimental: as §1

HGK = biological target: T21, HGK (Homo sapiens, UniProt O95819); experiment: ProfilerPro Kinase Selectivity, HGK
T21 construct: purchased Caliper LifeSciences
Experimental: as §1

EGFR T790M L858R = biological target: T22, EGFR T790M L858R (Homo sapiens, UniProt P00533, L858R/T790M); experiment: ProfilerPro Kinase Selectivity, EGFR T790M L858R
T22 construct: purchased Caliper LifeSciences
Experimental: as §1

PASK = biological target: T23, PASK (Homo sapiens, UniProt Q96RG2); experiment: ProfilerPro Kinase Selectivity, PASK
T23 construct: purchased Caliper LifeSciences
Experimental: as §1

LTK = biological target: T24, LTK (Homo sapiens, UniProt P29376); experiment: ProfilerPro Kinase Selectivity, LTK
T24 construct: purchased Caliper LifeSciences
Experimental: as §1

MST1 = biological target: T25, MST1 (Homo sapiens, UniProt Q13043); experiment: ProfilerPro Kinase Selectivity, MST1
T25 construct: purchased Caliper LifeSciences
Experimental: as §1

RSK1 = biological target: T26, RSK1 (Homo sapiens, UniProt Q15418); experiment: ProfilerPro Kinase Selectivity, RSK1
T26 construct: purchased Caliper LifeSciences
Experimental: as §1

SGK2 = biological target: T27, SGK2 (Homo sapiens, UniProt Q9HBY8); experiment: ProfilerPro Kinase Selectivity, SGK2
T27 construct: purchased Caliper LifeSciences
Experimental: as §1

DYRK1A = biological target: T28, DYRK1A (Homo sapiens, UniProt Q13627); experiment: ProfilerPro Kinase Selectivity, DYRK1A
T28 construct: purchased Caliper LifeSciences
Experimental: as §1

EPHA2 = biological target: T29, EPHA2 (Homo sapiens, UniProt P29317); experiment: ProfilerPro Kinase Selectivity, EPHA2
T29 construct: purchased Caliper LifeSciences
Experimental: as §1

PIM2 = biological target: T30, PIM2 (Homo sapiens, UniProt Q9P1W9); experiment: ProfilerPro Kinase Selectivity, PIM2
T30 construct: purchased Caliper LifeSciences
T30 sequence (Q9P1W9 whole entry, species assumed): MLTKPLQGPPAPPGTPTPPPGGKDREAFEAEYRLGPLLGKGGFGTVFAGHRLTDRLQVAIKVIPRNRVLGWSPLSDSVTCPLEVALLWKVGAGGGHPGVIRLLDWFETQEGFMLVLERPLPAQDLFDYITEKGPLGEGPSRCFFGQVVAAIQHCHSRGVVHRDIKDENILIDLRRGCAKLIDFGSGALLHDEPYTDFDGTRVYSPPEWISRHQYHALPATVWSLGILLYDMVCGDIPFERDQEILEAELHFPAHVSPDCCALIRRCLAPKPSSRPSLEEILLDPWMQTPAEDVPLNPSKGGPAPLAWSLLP
Experimental: as §1

RET = biological target: T31, RET (Homo sapiens, UniProt P07949); experiment: ProfilerPro Kinase Selectivity, RET
T31 construct: purchased Caliper LifeSciences
Experimental: as §1

PKACA = biological target: T32, PKACA (Homo sapiens, UniProt P17612); experiment: ProfilerPro Kinase Selectivity, PKACA
T32 construct: purchased Caliper LifeSciences
Experimental: as §1

TRKC = biological target: T33, TRKC (Homo sapiens, UniProt Q16288); experiment: ProfilerPro Kinase Selectivity, TRKC
T33 construct: purchased Caliper LifeSciences
T33 sequence (Q16288 32-839, species assumed): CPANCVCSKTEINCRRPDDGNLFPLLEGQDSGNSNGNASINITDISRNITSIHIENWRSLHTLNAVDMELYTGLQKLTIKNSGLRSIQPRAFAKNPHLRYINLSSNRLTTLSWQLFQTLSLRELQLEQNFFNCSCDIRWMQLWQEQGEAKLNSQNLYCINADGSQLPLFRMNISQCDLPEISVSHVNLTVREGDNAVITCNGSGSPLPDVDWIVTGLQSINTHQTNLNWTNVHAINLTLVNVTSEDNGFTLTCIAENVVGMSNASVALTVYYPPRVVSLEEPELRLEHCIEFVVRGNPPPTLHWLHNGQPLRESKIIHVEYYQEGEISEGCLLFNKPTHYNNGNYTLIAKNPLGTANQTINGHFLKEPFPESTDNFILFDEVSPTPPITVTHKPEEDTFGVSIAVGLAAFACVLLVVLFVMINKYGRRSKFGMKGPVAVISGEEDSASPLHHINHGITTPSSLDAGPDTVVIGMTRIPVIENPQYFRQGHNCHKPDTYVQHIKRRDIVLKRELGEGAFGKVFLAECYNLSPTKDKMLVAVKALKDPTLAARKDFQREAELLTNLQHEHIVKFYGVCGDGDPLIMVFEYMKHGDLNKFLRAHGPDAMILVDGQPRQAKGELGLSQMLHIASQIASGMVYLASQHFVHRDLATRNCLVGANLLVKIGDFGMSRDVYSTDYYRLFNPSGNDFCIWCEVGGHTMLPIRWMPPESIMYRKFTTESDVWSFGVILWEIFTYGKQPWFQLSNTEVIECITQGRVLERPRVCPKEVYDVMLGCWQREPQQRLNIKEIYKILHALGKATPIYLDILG
Experimental: as §1

CK1G3 = biological target: T34, CK1G3 (Homo sapiens, UniProt Q9Y6M4); experiment: ProfilerPro Kinase Selectivity, CK1G3
T34 construct: purchased Caliper LifeSciences
Experimental: as §1

FGFR2 N549H = biological target: T35, FGFR2 N549H (Homo sapiens, UniProt P21802, N549H); experiment: ProfilerPro Kinase Selectivity, FGFR2 N549H
T35 construct: purchased Caliper LifeSciences
Experimental: as §1

RAF-1 = biological target: T36, RAF-1 (Homo sapiens, UniProt P04049); experiment: ProfilerPro Kinase Selectivity, RAF-1
T36 construct: purchased Caliper LifeSciences
Experimental: as §1

AKT1 = biological target: T37, AKT1 (Homo sapiens, UniProt P31749); experiment: ProfilerPro Kinase Selectivity, AKT1
T37 construct: purchased Caliper LifeSciences
T37 sequence (P31749 whole entry, species assumed): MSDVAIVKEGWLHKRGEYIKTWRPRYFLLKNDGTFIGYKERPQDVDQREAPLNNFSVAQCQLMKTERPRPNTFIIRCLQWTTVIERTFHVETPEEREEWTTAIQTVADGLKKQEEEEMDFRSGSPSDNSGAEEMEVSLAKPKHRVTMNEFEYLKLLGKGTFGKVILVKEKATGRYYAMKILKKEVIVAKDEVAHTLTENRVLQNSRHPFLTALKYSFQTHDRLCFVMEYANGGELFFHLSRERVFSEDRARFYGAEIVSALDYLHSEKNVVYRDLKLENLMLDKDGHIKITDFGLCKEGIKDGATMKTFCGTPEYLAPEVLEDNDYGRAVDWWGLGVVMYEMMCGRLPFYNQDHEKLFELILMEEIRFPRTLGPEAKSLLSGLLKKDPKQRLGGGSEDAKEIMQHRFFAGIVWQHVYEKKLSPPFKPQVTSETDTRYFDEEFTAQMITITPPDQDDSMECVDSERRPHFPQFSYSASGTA
Experimental: as §1

PDGFRA D842V = biological target: T38, PDGFRA D842V (Homo sapiens, UniProt P16234, D842V); experiment: ProfilerPro Kinase Selectivity, PDGFRA D842V
T38 construct: purchased Caliper LifeSciences
Experimental: as §1

CSc1sc(-c2cc[nH]n2)c2c1C(=O)CCC2 [Example 1, 3-(Methylsulfanyl)-1-(1H-pyrazol-3-yl)-6,7-dihydro-2-benzothiophen-4(5H)-one]
inhibition at 10 µM (ROCK2): -3.5%
inhibition at 10 µM (PRKX): -0.6%
inhibition at 10 µM (SRM): 3.5%
inhibition at 10 µM (TSSK2): 20.1%
inhibition at 10 µM (MARK1): -2.9%
inhibition at 10 µM (EGFR T790M): 1.8%
inhibition at 10 µM (CAMK2G): 3.1%
inhibition at 10 µM (FES): -2.8%
inhibition at 10 µM (TXK): 22.7%
inhibition at 10 µM (CDK5/P25): 9.5%
inhibition at 10 µM (ABL T315I): 9.9%
inhibition at 10 µM (ZIPK): 8.1%
inhibition at 10 µM (TEC): 0.6%
inhibition at 10 µM (PRKCB2): -7.4%
inhibition at 10 µM (FGFR3): 9%
inhibition at 10 µM (ARG): -6%
inhibition at 10 µM (CAMK4): 20.1%
inhibition at 10 µM (MNK1): 1.7%
inhibition at 10 µM (PDGFRA): 15.7%
inhibition at 10 µM (MARK4): -9.4%
inhibition at 10 µM (HGK): 13.8%
inhibition at 10 µM (EGFR T790M L858R): 3.9%
inhibition at 10 µM (PASK): 2.6%
inhibition at 10 µM (LTK): 16%
inhibition at 10 µM (MST1): 7.2%
inhibition at 10 µM (RSK1): 9.5%
inhibition at 10 µM (SGK2): 10.6%
inhibition at 10 µM (DYRK1A): 44%
inhibition at 10 µM (EPHA2): 0.7%
inhibition at 10 µM (PIM2): 1.6%
inhibition at 10 µM (RET): 24.4%
inhibition at 10 µM (PKACA): -6%
inhibition at 10 µM (TRKC): 10.3%
inhibition at 10 µM (CK1G3): 1.1%
inhibition at 10 µM (FGFR2 N549H): 1.4%
inhibition at 10 µM (RAF-1): 3.1%
inhibition at 10 µM (AKT1): -3.2%
inhibition at 10 µM (PDGFRA D842V): 33.9%

CC1(C)CC(=O)c2c(SC3CCCC3)sc(-c3cc[nH]n3)c2C1 [Example 7, 3-(Cyclopentylsulfanyl)-6,6-dimethyl-1-(1H-pyrazol-3-yl)-6,7-dihydro-2-benzothiophen-4(5H)-one]
inhibition at 10 µM (ROCK2): 0.9%
inhibition at 10 µM (PRKX): -6.6%
inhibition at 10 µM (SRM): 3%
inhibition at 10 µM (TSSK2): -2.3%
inhibition at 10 µM (MARK1): -0.6%
inhibition at 10 µM (EGFR T790M): -1.9%
inhibition at 10 µM (CAMK2G): 4.4%
inhibition at 10 µM (FES): -3.1%
inhibition at 10 µM (TXK): 8.4%
inhibition at 10 µM (CDK5/P25): -11.7%
inhibition at 10 µM (ABL T315I): 2.6%
inhibition at 10 µM (ZIPK): 1%
inhibition at 10 µM (TEC): -3.2%
inhibition at 10 µM (PRKCB2): 6.4%
inhibition at 10 µM (FGFR3): -2.6%
inhibition at 10 µM (ARG): 8.6%
inhibition at 10 µM (CAMK4): -1.5%
inhibition at 10 µM (MNK1): -5.6%
inhibition at 10 µM (PDGFRA): -0.7%
inhibition at 10 µM (MARK4): 11.6%
inhibition at 10 µM (HGK): 3.9%
inhibition at 10 µM (EGFR T790M L858R): 13.7%
inhibition at 10 µM (PASK): -10.8%
inhibition at 10 µM (LTK): 19.5%
inhibition at 10 µM (MST1): -3%
inhibition at 10 µM (RSK1): 3.3%
inhibition at 10 µM (SGK2): 5.4%
inhibition at 10 µM (DYRK1A): 0%
inhibition at 10 µM (EPHA2): 0.7%
inhibition at 10 µM (PIM2): -1.6%
inhibition at 10 µM (RET): 20.7%
inhibition at 10 µM (PKACA): -5.4%
inhibition at 10 µM (TRKC): 0.5%
inhibition at 10 µM (CK1G3): 7.7%
inhibition at 10 µM (FGFR2 N549H): -5.8%
inhibition at 10 µM (RAF-1): -0.2%
inhibition at 10 µM (AKT1): 0.1%
inhibition at 10 µM (PDGFRA D842V): 3.7%

Reference: US20130338106A1, “COMPOUNDS INHIBITING LEUCINE-RICH REPEAT KINASE ENZYME ACTIVITY” (priority 2011, published 2013)
